# Test results reported in the supplement of paper PMC11061612.
# Legend:
# [1] = compound: C1CC(C1)(C(=O)[O-])C(=O)[O-].N.N.[Pt+2] [Carboplatin]; settings: max 10 µM
# In short: (§1)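 In 1536-well plates, cancer cell lines in 7.5 μl DMEM/F12 or RPMI with 10% FBS spent 24 hours at 37°C and 5% CO2 and were then dosed for 72 hours with final DMSO typically 0.2%. Viability was read by CellTiter-Glo 2.0 luminescence and scaled between blank-well and DMSO-well means. The single-agent IC50 was fitted from dose responses using a logistic curve in a non-linear mixed effects model, and that logistic curve had two parameters.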
# [2] = compound: C1CN(CCC1(C(=O)N[C@@H](CCO)C2=CC=C(C=C2)Cl)N)C3=NC=NC4=C3C=CN4 [AZD5363]; settings: max 10 µM
# In short: as §1
# [3] = compound: C=CCn1c(=O)c2cnc(Nc3ccc(N4CCN(C)CC4)cc3)nc2n1-c1cccc(C(C)(C)O)n1 [AZD1775]; settings: max 3 µM
# In short: as §1
# [4] = compound: CC(=O)Nc1cccc(-n2c(=O)n(C3CC3)c(=O)c3c(Nc4ccc(I)cc4F)n(C)c(=O)c(C)c32)c1 [Trametinib]; settings: max 1 µM
# In short: as §1
# [5] = compound: CC(=O)O[C@H]1C(=O)[C@@]2(C)[C@H]([C@H](OC(=O)c3ccccc3)[C@]3(O)C[C@H](OC(=O)[C@H](O)[C@@H](NC(=O)c4ccccc4)c4ccccc4)C(C)=C1C3(C)C)[C@]1(OC(C)=O)CO[C@@H]1C[C@@H]2O [Paclitaxel]; settings: max 3 µM
# In short: as §1
# [6] = compound: CC(=O)c1c(C)c2cnc(Nc3ccc(N4CCNCC4)cn3)nc2n(C2CCCC2)c1=O [Palbociclib]; settings: max 10 µM
# In short: as §1
# [7] = compound: CC(C)n1c(=O)n(C)c2cnc3cc(F)c(-c4ccc(OCCCN5CCCCC5)nc4)cc3c21 [AZD1390]; settings: max 0.3 µM
# In short: as §1
# [8] = compound: CC1(C)CCC(CN2CCN(c3ccc(C(=O)NS(=O)(=O)c4ccc(NCC5CCOCC5)c([N+](=O)[O-])c4)c(Oc4cnc5[nH]ccc5c4)c3)CC2)=C(c2ccc(Cl)cc2)C1 [Venetoclax]; settings: max 1 µM
# In short: as §1
# [9] = compound: CC1=C(C(=CC=C1)Cl)NC(=O)C2=CN=C(S2)NC3=CC(=NC(=N3)C)N4CCN(CC4)CCO [Dasatinib]; settings: max 2 µM
# In short: as §1
# [10] = compound: CC1=CN2[C@@H](C1)C=NC3=CC(=C(C=C3C2=O)OC)OCCCCCOC4=C(C=C5C(=C4)N=C[C@@H]6CC(=CN6C5=O)C)OC [SG3199]; settings: max 0.001 µM
# In short: as §1
# [11] = compound: CCN(CCO)CCCOc1ccc2c(Nc3cc(CC(=O)Nc4cccc(F)c4)[nH]n3)ncnc2c1 [AZD2811]; settings: max 1 µM
# In short: as §1
# [12] = compound: CCc1c2c(nc3ccc(O)cc13)-c1cc3c(c(=O)n1C2)COC(=O)[C@]3(O)CC [SN-38]; settings: max 0.3 µM
# In short: as §1
# [13] = compound: CN(C)CCCOc1ccc(-c2ccc3ncc4c(c3c2)n(C2CCOCC2)c(=O)n4C)cn1 [AZD0156]; settings: max 3 µM
# In short: as §1
# [14] = compound: CN(CC[C@H](CSC1=CC=CC=C1)NC2=C(C=C(C=C2)S(=O)(=O)NC(=O)C3=CC=C(C=C3)N4CCC(CC4)[C@H](C5=CC=CC=C5C6=CC=C(C=C6)Cl)O)S(=O)(=O)C(F)(F)F)CCO [AZD4320]; settings: max 1 µM
# In short: as §1
# [15] = compound: COc1cc(Nc2ncc3c(n2)-c2ccc(Cl)cc2C(c2c(F)cccc2OC)=NC3)ccc1C(=O)O [Alisertib]; settings: max 10 µM
# In short: as §1
# [16] = compound: COc1cc([C@@H]2c3cc4c(cc3[C@@H](O[C@@H]3O[C@@H]5CO[C@@H](C)O[C@H]5[C@H](O)[C@H]3O)[C@H]3COC(=O)[C@H]23)OCO4)cc(OC)c1O [Etoposide]; settings: max 10 µM
# In short: as §1
# [17] = compound: COc1cc2ncnc(Nc3ccc(F)c(Cl)c3)c2cc1OCCCN1CCOCC1 [Gefitinib]; settings: max 10 µM
# In short: as §1
# [18] = compound: COc1cccc(OCCCN)c1-c1cc(Nc2cnc(C#N)cn2)n[nH]1 [Prexasertib]; settings: max 1 µM
# In short: as §1
# [19] = compound: COc1cccc2c1C(=O)c1c(O)c3c(c(O)c1C2=O)C[C@@](O)(C(=O)CO)C[C@@H]3O[C@H]1C[C@H](N)[C@H](O)[C@H](C)O1 [Doxorubicin]; settings: max 1 µM
# In short: as §1
# [20] = compound: COc1nnc2ccc(N3CCC(c4ccc(OCCN5CCN(C)C(=O)[C@H]5C)cc4)CC3)nn12 [AZD5153]; settings: max 1 µM
# In short: as §1
# [21] = compound: CS(=O)(=O)CCNCc1ccc(-c2ccc3ncnc(Nc4ccc(OCc5cccc(F)c5)c(Cl)c4)c3c2)o1 [Lapatinib]; settings: max 10 µM
# In short: as §1
# [22] = compound: C[C@@H](Nc1cc(F)cc(F)c1)c1cc(C(=O)N(C)C)cc2c(=O)cc(N3CCOCC3)oc12 [AZD8186]; settings: max 10 µM
# In short: as §1
# [23] = compound: C[C@@H](Oc1cc(-c2cnn(C3CCNCC3)c2)cnc1N)c1c(Cl)ccc(F)c1Cl [Crizotinib]; settings: max 10 µM
# In short: as §1
# [24] = compound: C[C@@H](c1ccc2nccn2c1)n1nnc2ncc(-c3cnn(C)c3)nc21 [Savolitinib]; settings: max 1 µM
# In short: as §1
# [25] = compound: C[C@@H]1COCCN1C2=NC(=NC(=C2)C3(CC3)[S@](=N)(=O)C)C4=C5C=CNC5=NC=C4 [AZD6738]; settings: max 10 µM
# In short: as §1
# [26] = compound: Cc1c2c(nn1C)CSCc1cc(n(C)n1)CSc1cc(c3ccccc3c1)OCCCc1c(C(=O)O)n(C)c3c-2c(Cl)ccc13 [AZD5991]; settings: max 1 µM
# In short: as §1
# [27] = compound: Cc1cc2ncnn2cc1Nc1ncc2c(n1)n(C1CCOCC1)c(=O)n2C [AZD7648]; settings: max 10 µM
# In short: as §1
# [28] = compound: Cc1nc(-c2cn3c(n2)-c2ccc(-c4cnn(C(C)(C)C(N)=O)c4)cc2OCC3)n(C(C)C)n1 [Taselisib]; settings: max 10 µM
# In short: as §1
# [29] = compound: Cn1cnc2c(F)c(Nc3ccc(Br)cc3Cl)c(C(=O)NOCCO)cc21 [Selumetinib]; settings: max 10 µM
# In short: as §1
# [30] = compound: N#Cc1cnc(Nc2cc(NC[C@H]3CNCCO3)c(C(F)(F)F)cn2)cn1 [SRA737]; settings: max 10 µM
# In short: as §1
# [31] = compound: NC1(c2ccc(-c3nc4ccn5c(=O)[nH]nc5c4cc3-c3ccccc3)cc2)CCC1 [MK-2206]; settings: max 10 µM
# In short: as §1
# [32] = compound: Nc1ccn([C@@H]2O[C@H](CO)[C@@H](O)C2(F)F)c(=O)n1 [Gemcitabine]; settings: max 0.3 µM
# In short: as §1
# [33] = compound: O=C(Nc1ccc2[nH]nc(-c3ccncc3)c2c1)[C@@H]1CCN(CC(=O)N2CCN(c3ccc(-c4ncccn4)cc3)CC2)C1; settings: max 5 µM
# In short: as §1
# [34] = compound: O=C(c1cc(Cc2n[nH]c(=O)c3ccccc23)ccc1F)N1CCN(C(=O)C2CC2)CC1 [Olaparib]; settings: max 10 µM
# In short: as §1
# [35] = compound: O=c1[nH]cc(F)c(=O)[nH]1 [5-Fluorouracil]; settings: max 20 µM
# In short: as §1
Cell Line,"IC50, cell viability 72 h [1] [nM]","IC50, cell viability 72 h [2] [nM]","IC50, cell viability 72 h [3] [nM]","IC50, cell viability 72 h [4] [nM]","IC50, cell viability 72 h [5] [nM]","IC50, cell viability 72 h [6] [nM]","IC50, cell viability 72 h [7] [nM]","IC50, cell viability 72 h [8] [nM]","IC50, cell viability 72 h [9] [nM]","IC50, cell viability 72 h [10] [nM]","IC50, cell viability 72 h [11] [nM]","IC50, cell viability 72 h [12] [nM]","IC50, cell viability 72 h [13] [nM]","IC50, cell viability 72 h [14] [nM]","IC50, cell viability 72 h [15] [nM]","IC50, cell viability 72 h [16] [nM]","IC50, cell viability 72 h [17] [nM]","IC50, cell viability 72 h [18] [nM]","IC50, cell viability 72 h [19] [nM]","IC50, cell viability 72 h [20] [nM]","IC50, cell viability 72 h [21] [nM]","IC50, cell viability 72 h [22] [nM]","IC50, cell viability 72 h [23] [nM]","IC50, cell viability 72 h [24] [nM]","IC50, cell viability 72 h [25] [nM]","IC50, cell viability 72 h [26] [nM]","IC50, cell viability 72 h [27] [nM]","IC50, cell viability 72 h [28] [nM]","IC50, cell viability 72 h [29] [nM]","IC50, cell viability 72 h [30] [nM]","IC50, cell viability 72 h [31] [nM]","IC50, cell viability 72 h [32] [nM]","IC50, cell viability 72 h [33] [nM]","IC50, cell viability 72 h [34] [nM]","IC50, cell viability 72 h [35] [nM]"
MDA-MB-175-VII (Breast Carcinoma),> 10000,4360,> 3000,463,> 3000,> 10000,> 300,> 1000,> 2000,> 1,> 1000,110,> 3000,> 1000,> 10000,> 10000,1150,> 1000,> 1000,> 1000,514,> 10000,> 10000,> 1000,> 10000,> 1000,> 10000,1790,> 10000,> 10000,3990,> 300,794,> 10000,> 20000
C32 (Melanoma),> 10000,> 10000,> 3000,4.11,346,> 10000,> 300,> 1000,> 2000,> 1,> 1000,61.7,> 3000,> 1000,> 10000,> 10000,> 10000,52.7,> 1000,> 1000,> 10000,> 10000,> 10000,> 1000,8160,> 1000,> 10000,> 10000,323,> 10000,> 10000,54.1,174,> 10000,> 20000
